Assay results as given in US11136313B2, “Compounds, compositions, and methods for modulating CFTR” (Proteostasis Therapeutics, Inc., priority 2015, dated 2021).

Target: T1, ΔF508-CFTR (Homo sapiens, UniProt P13569, DEL508-508)
T1 construct: Primary lung epithelial cells homozygous for the Cystic Fibrosis-causing ΔF508 mutation were differentiated for a minimum of 4 weeks; endogenous in cells; host or cells: primary lung epithelial cells (hBE) homozygous for ΔF508, differentiated at an air-liquid interface
T1 sequence (P13569 with tags, fused parts or gaps DEL508-508): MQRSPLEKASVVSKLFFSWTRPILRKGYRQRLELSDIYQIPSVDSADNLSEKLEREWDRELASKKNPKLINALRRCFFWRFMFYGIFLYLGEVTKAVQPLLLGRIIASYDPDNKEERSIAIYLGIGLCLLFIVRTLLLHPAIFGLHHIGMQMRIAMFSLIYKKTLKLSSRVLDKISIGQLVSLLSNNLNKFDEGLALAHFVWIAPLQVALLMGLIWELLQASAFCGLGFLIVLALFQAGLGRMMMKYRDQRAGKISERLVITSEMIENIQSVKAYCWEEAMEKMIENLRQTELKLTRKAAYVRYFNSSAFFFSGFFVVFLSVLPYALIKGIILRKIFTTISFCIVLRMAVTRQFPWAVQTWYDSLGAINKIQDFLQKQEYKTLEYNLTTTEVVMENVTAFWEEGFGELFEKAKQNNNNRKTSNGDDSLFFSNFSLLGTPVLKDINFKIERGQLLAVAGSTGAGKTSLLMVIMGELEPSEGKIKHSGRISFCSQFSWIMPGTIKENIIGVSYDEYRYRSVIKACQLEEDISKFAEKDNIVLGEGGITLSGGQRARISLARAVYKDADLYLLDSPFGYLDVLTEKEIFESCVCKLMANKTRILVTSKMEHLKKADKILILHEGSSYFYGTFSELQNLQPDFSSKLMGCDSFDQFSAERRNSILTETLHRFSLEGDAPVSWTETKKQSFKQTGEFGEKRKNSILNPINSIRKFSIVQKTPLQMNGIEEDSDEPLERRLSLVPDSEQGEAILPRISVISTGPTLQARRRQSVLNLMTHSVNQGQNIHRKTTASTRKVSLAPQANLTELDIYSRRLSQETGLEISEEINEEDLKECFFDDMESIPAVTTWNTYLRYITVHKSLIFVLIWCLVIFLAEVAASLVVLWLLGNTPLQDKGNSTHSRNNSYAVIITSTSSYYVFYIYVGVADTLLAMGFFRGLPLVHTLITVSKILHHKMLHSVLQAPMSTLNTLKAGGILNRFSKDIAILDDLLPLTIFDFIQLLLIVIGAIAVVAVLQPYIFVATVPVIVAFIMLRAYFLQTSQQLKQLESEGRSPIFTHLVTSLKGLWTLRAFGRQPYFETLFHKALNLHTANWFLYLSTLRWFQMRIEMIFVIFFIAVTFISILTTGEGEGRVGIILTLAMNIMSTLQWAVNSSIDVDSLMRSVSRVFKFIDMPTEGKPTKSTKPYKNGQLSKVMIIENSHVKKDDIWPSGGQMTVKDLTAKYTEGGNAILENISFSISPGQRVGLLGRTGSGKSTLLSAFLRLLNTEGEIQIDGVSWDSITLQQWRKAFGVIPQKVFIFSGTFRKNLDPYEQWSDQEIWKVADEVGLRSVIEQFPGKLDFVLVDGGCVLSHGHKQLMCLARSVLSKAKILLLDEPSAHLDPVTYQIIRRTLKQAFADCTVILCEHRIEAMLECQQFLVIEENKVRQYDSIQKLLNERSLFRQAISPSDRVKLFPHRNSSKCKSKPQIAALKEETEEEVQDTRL
Assay: hBE equivalent current (Ieq) assay: AUC of equivalent chloride current after forskolin/VX-770 in primary lung epithelial cells homozygous for ΔF508
Assay type: cell-based
Settings: relative to CFTR amplifier (Compound A)+VX-809 (3 uM), compound at 10 uM and Compound A at 3 uM, 24 h treatment
Procedure, shortened: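 ΔF508/ΔF508 primary human bronchial epithelia, differentiated ≥4 weeks at air-liquid interface, treated basolaterally with compound for 24 h at 37 °C. Transepithelial voltage and conductance by 24-channel current clamp at 36 °C: benzamil, then forskolin plus VX-770 for 27 min, then bumetanide; AUC of equivalent chloride current over vehicle.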

SMILES | Activity
CO[C@]1(C)CC[C@H](COc2ccc(C)c3nc(-c4oc5ccccc5c4C)cc(C(=O)[O-])c23)CC1.[Na+] [Compound 387] | ++ (activity>50% of CFTR amplifier+VX-809 (3 uM) with compound at 10 uM and Compound A at 3 uM)
Cc1ccc(O[C@H](C)c2ccccc2)c2c(C(=O)O)cc(-c3csc4ccccc34)nc12 [Compound 162] | ++ (activity>50% of CFTR amplifier+VX-809 (3 uM) with compound at 10 uM and Compound A at 3 uM)
Cc1c(-c2cc(C(=O)[O-])c3c(OCc4cccc5c4OCO5)ccc(C)c3n2)sc2ccccc12.[Na+] [Compound 296] | ++ (activity>50% of CFTR amplifier+VX-809 (3 uM) with compound at 10 uM and Compound A at 3 uM)
Cc1ccc(O[C@H](C)c2ccccc2)c2c(C(=O)[O-])cc(-c3nc4ccccn4c3C)nc12.[Na+] [Compound 200] | + (activity<50% of an CFTR amplifier (Compound A)+VX-809 (3 uM) with compound at 10 uM and Compound A at 3 uM)
Cc1c(-c2cc(C(=O)[O-])c3c(OCC4CCC5(CC4)COC5)ccc(C)c3n2)sc2ccccc12.[Na+] [Compound 384] | ++ (activity>50% of CFTR amplifier+VX-809 (3 uM) with compound at 10 uM and Compound A at 3 uM)
Cc1c(-c2cc(C(=O)[O-])c3c(O[C@@H]4CCc5ccccc5C4)ccc(C)c3n2)oc2ccccc12.[Na+] [Compound 249] | ++ (activity>50% of CFTR amplifier+VX-809 (3 uM) with compound at 10 uM and Compound A at 3 uM)
CO[C@]1(C)CC[C@@H](COc2ccc(C)c3nc(-c4sc5ccccc5c4C)cc(C(=O)[O-])c23)CC1.[Na+] [Compound 327] | ++ (activity>50% of CFTR amplifier+VX-809 (3 uM) with compound at 10 uM and Compound A at 3 uM)
Cc1c(-c2cc(C(=O)[O-])c3c(O[C@@H]4CCC[C@H](c5ccccc5)C4)ccc(C)c3n2)oc2ccccc12.[Na+] [Compound 300] | ++ (activity>50% of CFTR amplifier+VX-809 (3 uM) with compound at 10 uM and Compound A at 3 uM)
Cc1c(-c2cc(C(=O)[O-])c3c(O[C@H](C)c4ccc(C5COC5)cc4)ccc(C)c3n2)oc2ccccc12.[Na+] [Compound 285, Sodium 8-Methyl-2-(3-methyl-1-benzofuran-2-yl)-5-[(1R)-1-[4-(oxetan-3-yl)phenyl]ethoxy]quinoline-4-carboxylate] | ++ (activity>50% of CFTR amplifier+VX-809 (3 uM) with compound at 10 uM and Compound A at 3 uM)
Cc1c(-c2cc(C(=O)[O-])c3c(OCc4ccc5c(c4)OCO5)ccc(C)c3n2)sc2ccccc12.[Na+] [Compound 295, Sodium 5-(2H-1,3-Benzodioxol-5-ylmethoxy)-8-methyl-2-(3-methyl-1-benzothiophen-2-yl)quinoline-4-carboxylate] | ++ (activity>50% of CFTR amplifier+VX-809 (3 uM) with compound at 10 uM and Compound A at 3 uM)
Cc1c(-c2cc(C(=O)[O-])c3c(O[C@@H](CCO)c4ccccc4)ccc(C)c3n2)sc2ccccc12.[Na+] [Compound 310] | ++ (activity>50% of CFTR amplifier+VX-809 (3 uM) with compound at 10 uM and Compound A at 3 uM)
Cc1cc(C)c2nc(-c3cc4ccccc4s3)nc(C(=O)O)c2c1 [Compound 4, 2-(1-Benzothiophen-2-yl)-6,8-dimethylquinazoline-4-carboxylic Acid] | + (activity<50% of an CFTR amplifier (Compound A)+VX-809 (3 uM) with compound at 10 uM and Compound A at 3 uM)
Cc1ccc(C)c2c(C(=O)O)cc(-c3cc4ccccc4s3)nc12 [Compound 13, 2-(1-Benzothiophen-2-yl)-5,8-dimethylquinoline-4-carboxylic acid] | + (activity<50% of an CFTR amplifier (Compound A)+VX-809 (3 uM) with compound at 10 uM and Compound A at 3 uM)
Cc1ccc(OCc2ccccc2)c2c(C(=O)O)cc(-c3csc4ccccc34)nc12 [Compound 95, 2-(1-Benzothiophen-3-yl)-5-(benzyloxy)-8-methylquinoline-4-carboxylic acid] | ++ (activity>50% of CFTR amplifier+VX-809 (3 uM) with compound at 10 uM and Compound A at 3 uM)
Cc1c(-c2cc(C(=O)O)c3c(C)ccc(C)c3n2)oc2c(F)cccc12 [Compound 130, 2-(7-Fluoro-3-methyl-1-benzofuran-2-yl)-5,8-dimethylquinoline-4-carboxylic acid] | + (activity<50% of an CFTR amplifier (Compound A)+VX-809 (3 uM) with compound at 10 uM and Compound A at 3 uM)
Cc1ccccc1COc1ccc(C)c2nc(-c3sc4ccccc4c3C)cc(C(=O)[O-])c12.[Na+] [Compound 303] | ++ (activity>50% of CFTR amplifier+VX-809 (3 uM) with compound at 10 uM and Compound A at 3 uM)
CCc1ccc(OCc2ccc(S(C)(=O)=O)cc2)c2c(C(=O)O)cc(-c3oc4ccccc4c3C)nc12 [Compound 145, 8-Ethyl-5-[(4-methanesulfonylphenyl)methoxy]-2-(3-methyl-1-benzofuran-2-yl)quinoline-4-carboxylic acid] | ++ (activity>50% of CFTR amplifier+VX-809 (3 uM) with compound at 10 uM and Compound A at 3 uM)

SMILES | Activity
Cc1c(-c2cc(C(=O)O)c3c(OCc4cccnc4)ccc(C)c3n2)oc2ccccc12 [Compound 114, 8-Methyl-2-(3-methyl-1-benzofuran-2-yl)-5-(pyridin-3-ylmethoxy)quinoline-4-carboxylic acid] | + (activity<50% of an CFTR amplifier (Compound A)+VX-809 (3 uM) with compound at 10 uM and Compound A at 3 uM)
CCc1ccc(O[C@@H]2CCC[C@@H](C)C2)c2c(C(=O)[O-])cc(-c3sc4ccccc4c3C)nc12.[Na+] [Compound 217, Sodium 8-Ethyl-2-(3-methyl-1-benzothiophen-2-yl)-5-[[(1R,3R)-3-methylcyclohexyl]oxy]quinoline-4-carboxylate] | ++ (activity>50% of CFTR amplifier+VX-809 (3 uM) with compound at 10 uM and Compound A at 3 uM)
CCc1ccc(OCc2cccc(C)c2)c2c(C(=O)O)cc(-c3csc4ccccc34)nc12 [Compound 188] | ++ (activity>50% of CFTR amplifier+VX-809 (3 uM) with compound at 10 uM and Compound A at 3 uM)
CCc1ccc(OC2CCCCC2)c2c(C(=O)O)cc(-c3coc4ccccc34)nc12 [Compound 170, 2-(1-Benzofuran-3-yl)-5-(cyclohexyloxy)-8-ethylquinoline-4-carboxylic acid] | ++ (activity>50% of CFTR amplifier+VX-809 (3 uM) with compound at 10 uM and Compound A at 3 uM)
Cc1c(-c2cc(C(=O)[O-])c3c(OC[C@H]4C[C@H]5CC[C@@H](C4)O5)ccc(C)c3n2)sc2ccccc12.[Na+] [Compound 359] | ++ (activity>50% of CFTR amplifier+VX-809 (3 uM) with compound at 10 uM and Compound A at 3 uM)
Cc1c(-c2cc(C(=O)[O-])c3c(O[C@H]4C[C@H](C)C[C@H](C)C4)ccc(C)c3n2)sc2ccccc12.[Na+] [Compound 314] | ++ (activity>50% of CFTR amplifier+VX-809 (3 uM) with compound at 10 uM and Compound A at 3 uM)
CCc1ccc(OCc2ccccc2)c2c(C(=O)O)cc(-c3csc4ccccc34)nc12 [Compound 158, 2-(1-Benzothiophen-3-yl)-5-(benzyloxy)-8-ethylquinoline-4-carboxylic acid] | ++ (activity>50% of CFTR amplifier+VX-809 (3 uM) with compound at 10 uM and Compound A at 3 uM)
Cc1c(-c2cc(C(=O)[O-])c3c(O[C@@H]4CCC[C@@H](c5ccccc5)C4)ccc(C)c3n2)oc2ccccc12.[Na+] [Compound 301] | ++ (activity>50% of CFTR amplifier+VX-809 (3 uM) with compound at 10 uM and Compound A at 3 uM)
Cc1c(-c2cc(C(=O)[O-])c3c(OC[C@H]4C[C@@](C)(O)C4)ccc(C)c3n2)oc2ccccc12.[Na+] [Compound 374] | ++ (activity>50% of CFTR amplifier+VX-809 (3 uM) with compound at 10 uM and Compound A at 3 uM)
Cc1c(-c2cc(C(=O)O)c3cc(OCCO)cc(C)c3n2)oc2ccccc12 [Compound 25, 6-(2-Hydroxyethoxy)-8-methyl-2-(3-methyl-1-benzofuran-2-yl)quinoline-4-carboxylic Acid] | + (activity<50% of an CFTR amplifier (Compound A)+VX-809 (3 uM) with compound at 10 uM and Compound A at 3 uM)
CCc1ccc(O[C@H]2CCC[C@@H](C)C2)c2c(C(=O)O)cc(-c3csc4ccccc34)nc12 [Compound 181, 2-(1-Benzothiophen-3-yl)-8-ethyl-5-[[(1S,3R)-3-methylcyclohexyl]oxy]quinoline-4-carboxylic Acid] | ++ (activity>50% of CFTR amplifier+VX-809 (3 uM) with compound at 10 uM and Compound A at 3 uM)
Cc1c(-c2cc(C(=O)O)c3c(NCc4ccccc4)ccc(C)c3n2)oc2ccccc12 [Compound 116, 5-(Benzylamino)-8-methyl-2-(3-methyl-1-benzofuran-2-yl)quinoline-4-carboxylic Acid] | ++ (activity>50% of CFTR amplifier+VX-809 (3 uM) with compound at 10 uM and Compound A at 3 uM)
Cc1c(-c2cc(C(=O)O)c3c(C)ccc(C)c3n2)oc2c(C)cccc12 [Compound 125, 2-(3,7-Dimethyl-1-benzofuran-2-yl)-5,8-dimethylquinoline-4-carboxylic acid] | ++ (activity>50% of CFTR amplifier+VX-809 (3 uM) with compound at 10 uM and Compound A at 3 uM)
Cc1c(-c2cc(C(=O)O)c3c(OCc4ccccc4)ccc(Cl)c3n2)oc2ccccc12 [Compound 111, 5-(Benzyloxy)-8-chloro-2-(3-methyl-1-benzofuran-2-yl)quinoline-4-carboxylic acid] | + (activity<50% of an CFTR amplifier (Compound A)+VX-809 (3 uM) with compound at 10 uM and Compound A at 3 uM)
Cc1cc(C)c2nc(-c3nc4ccccc4s3)cc(C(=O)O)c2c1 [Compound 2, 2-(1,3-Benzothiazol-2-yl)-6,8-dimethylquinoline-4-carboxylic Acid] | + (activity<50% of an CFTR amplifier (Compound A)+VX-809 (3 uM) with compound at 10 uM and Compound A at 3 uM)
CCc1ccc(OCc2ccccc2)c2c(C(=O)O)cc(-c3c(C)oc4ccccc34)nc12 [Compound 175] | ++ (activity>50% of CFTR amplifier+VX-809 (3 uM) with compound at 10 uM and Compound A at 3 uM)
